{"source": "patent US20190016697A1", "about": "“CONFIGURATIONAL STEREOISOMER OF DIFETHIALONE, COMPOSITION AND RODENTICIDE BAIT COMPRISING SAME, AND METHOD FOR CONTROLLING TARGET RODENT PESTS” (priority 2015, published 2019)", "assay_type": "in vivo, Rattus norvegicus", "conditions": "about 3.4 mg difethialone per kg per os (homo/hetero 4/6, each racemic), mean of six male and female rats, daily vitamin K1", "description": "C. Extraction of Difethialone from the Liver of Rats Treated with Difethialone for the Purpose of Analysis of the Various Enantiomers of Difethialone\nAbout 0.525 g (±0.025 g) of rat liver is weighed out accurately and placed in a 50 mL polypropylene tube. 10 mL of acetone are added and the suspension is homogenized using an Ultra-Turrax® homogenizer/disperser for a time of about 30 seconds. The homogenizer/disperser shaft is rinsed with hot water and then twice with 20 mL of acetone in a polypropylene tube. The homogenate is centrifuged for 5 minutes at a centrifugation speed of 3000 rpm (revolutions per minute). The supernatant is collected and transferred into a test tube. The sample is subjected to evaporation under a stream of nitrogen (N2) at a temperature of 40° C. so as to form a dry extract.\n1 mL of acetonitrile is added to the tube containing the dry extract so as to dissolve it. The acetonitrile solution is washed twice successively with 1 mL of hexane. The lipid-free extract is dried under a stream of nitrogen (N2) at a temperature of 40° C. and is then taken up in 0.5 mL of methanol and dissolved by vortex stirring. 0.5 mL of ultra-pure (Milli-Q) water is then added. The sample is vortex-homogenized.\n1 mL of dichloromethane (CH2Cl2), then 1 mL of methanol (CH3OH), then 1 mL of ultra-pure (Milli-Q) water are passed through an Oasis HLB 1 cc cartridge (WAT094225, Waters). The lipid-free liver extract (1 mL MeOH/Milli-Q H2O) containing difethialone is then loaded onto the top of the preconditioned cartridge. The liver extract penetrates through the cartridge by gravity on contact with the solid phase of the cartridge. 1 mL of washing solution formed from methanol (CH3OH) and ultra-pure water (H2O) in a 90/10 volume proportion is loaded onto the top of the cartridge. The cartridge is dried by suction under vacuum connected to the bottom of the cartridge. 1 mL of eluting solution formed from dichloromethane (CH2Cl2) and methanol (CH3OH) in a 90/10 volume proportion is then loaded onto the top of the cartridge and an eluate comprising difethialone is collected at the bottom of the cartridge. The solvent of the eluate is evaporated off under a stream of nitrogen (N2) at a temperature of 40° C. The sample is taken up in 0.5 mL of acetonitrile (NC-CH3) and the acetonitrile solution containing difethialone is filtered through a 0.2 μm filter.\nThe acetonitrile solution containing difethialone is analysed by high-pressure liquid chromatography on a LUX® Cellulose-3 chiral column (150×2 mm, particle size of 3 μm) (Phenomenex, Le Pecq, France) as described in point A2) above. The retention time value (t1) of the laevorotatory enantiomer of said homo-stereoisomer of difethialone according to the invention is between 7.8 minutes and 8.4 minutes (the maximum value of the peak corresponding to the […] enantiomer of said homo-stereoisomer being about 8.1 minutes, as described in FIG. 1), depending on the operating conditions, especially depending on the column temperature conditions. The retention time value (t4) of the dextrorotatory enantiomer of said homo-stereoisomer is between 13.3 minutes and 15.1 minutes (the maximum value of the peak corresponding to the […] enantiomer of said homo-stereoisomer being about 14.4 minutes), depending on the operating conditions, especially depending on the column temperature conditions. The retention time value (t3) of the dextrorotatory enantiomer of said hetero-stereoisomer of difethialone is between 11.2 minutes and 12.3 minutes (the maximum value of the peak corresponding to the dextrorotatory enantiomer of said hetero-stereoisomer being about 11.7 minutes), depending on the operating conditions, especially depending on the column temperature conditions. […]", "note": "Where two headings read alike, the source gives them in different places.", "data": [{"compound": "O=c1sc2ccccc2c(O)c1C1CC(c2ccc(-c3ccc(Br)cc3)cc2)Cc2ccccc21", "note": "(centres unmarked) [DFN-Hetero-dextro]", "values": [{"measurement": "Hepatic content", "setting": "4 hours after tube-feeding", "result": 10589.5, "unit": "ng/g"}, {"measurement": "Hepatic content", "setting": "9 hours after tube-feeding", "result": 12155.5, "unit": "ng/g"}, {"measurement": "Hepatic content", "setting": "24 hours after tube-feeding", "result": 8102, "unit": "ng/g"}, {"measurement": "Hepatic content", "setting": "48 hours after tube-feeding", "result": 7974.5, "unit": "ng/g"}, {"measurement": "Hepatic content", "setting": "120 hours after tube-feeding", "result": 5431.5, "unit": "ng/g"}, {"measurement": "Hepatic content", "setting": "168 hours after tube-feeding", "result": 3011, "unit": "ng/g"}, {"measurement": "Hepatic content", "setting": "216 hours after tube-feeding", "result": 4030.5, "unit": "ng/g"}]}, {"compound": "O=c1sc2ccccc2c(O)c1C1CC(c2ccc(-c3ccc(Br)cc3)cc2)Cc2ccccc21", "note": "(centres unmarked) [DFN-Hetero-laevo]", "values": [{"measurement": "Hepatic content", "setting": "4 hours after tube-feeding", "result": 5380.5, "unit": "ng/g"}, {"measurement": "Hepatic content", "setting": "9 hours after tube-feeding", "result": 5869.5, "unit": "ng/g"}, {"measurement": "Hepatic content", "setting": "24 hours after tube-feeding", "result": 3613.5, "unit": "ng/g"}, {"measurement": "Hepatic content", "setting": "48 hours after tube-feeding", "result": 2804, "unit": "ng/g"}, {"measurement": "Hepatic content", "setting": "120 hours after tube-feeding", "result": 1211, "unit": "ng/g"}, {"measurement": "Hepatic content", "setting": "168 hours after tube-feeding", "result": 392.5, "unit": "ng/g"}, {"measurement": "Hepatic content", "setting": "216 hours after tube-feeding", "result": 545, "unit": "ng/g"}]}]}
